Test system: H4-hAPP cells
Test: Aβ secretion assay
Assay type: cell-based, human
Protocol: (§1) Aβ Secretion: H4-hAPP cells were cultivated in Opti-MEM supplemented with 10% FCS, 1% penicillin/streptomycin 200 μg/mL Hygromycin B and 2.5 μg/mL Blasticidin S. H4-hAPP cells were seeded into 96 well plates (2×10^4 cells per well). On the next day, cells in 96 well plates were treated with compounds, R.I. (DAPT 400 nM) or vehicle. 24 h later, supernatants were collected for further Aβ measurements by MSD® (V-PLEX Aβ Peptide Panel 1 (6E10) Kit, K15200E, Mesoscale Discovery).
as §1, with “secretion: Human APP overexpressing” for “Secretion:”, “HCQ (0.25 μM, 2.5 μM and 25 μM) or the reference item” for “with compounds, R.I.”, “nM), a γ-secretase inhibitor” for “nM) or”
(§2) Cultivation and treatment of H4-hAPP cells: H4-hAPP cells were thawed and cultivated in Opti-MEM supplemented with 10% FCS, 1% penicillin/streptomycin 200 μg/ml Hygromycin B and 2.5 μg/ml Blasticidin S (=culture medium). H4-hAPP cells were seeded into 96 well plates (2×10^4 cells per well). On the next day, cells in 96 well plates were treated with TUDCA (100 μM (C1), 10 μM (C2), or 1.0 μM (C3)), R.I. (DAPT 400 nM) or vehicle. Alternatively, cells in 96 well plates were treated with 25 μM HCQ/0.1 μM TUDCA (C1), 2.5 μM HCQ/100 μM TUDCA (C2), and 2.5 μM HCQ/10 μM TUDCA (C3). 24 h later, supernatants were collected for further Aβ measurements by MSD. The experiment was performed in n=6 technical replicates for all groups.
(§3) Aβ38, 40, 42 measurement: Supernatants were diluted 1:10 and analyzed for human Aβ38, 40, and 42 with MSD® 96-well MULTI-SPOT® 6E10 Abeta Triplex Assay (Mesoscale Discovery, Rockville, MD). The immune assay was carried out according to the manual and plates are read on the MESO QuickPlex SQ 120 multiplexing instrument. Analyte levels were evaluated according to adequate Aβ peptide standards (MSD) as pg per mL.
Aβ Secretion: H4-hAPP cells were cultivated in Opti-MEM supplemented with 10% FCS, 1% penicillin/streptomycin, hygromycin B (200 μg/ml), and blasticidin S (2.5 μg/ml). H4-hAPP cells were seeded into 96-well plates (2×10^4 cells per well). On the next day, cells in 96-well plates were treated with compounds, reference item [400 nM N-[N-(3,5-difluorophenacetyl-1-alanyl)]-S-phenylglycine t-butyl ester (DAPT)], or vehicle. Twenty-four hours later, supernatants were collected for further Aβ measurements by MSD [V-PLEX Aβ Peptide Panel 1 (6E10) Kit, K15200E, Mesoscale Discovery].
as §2, with “Culture” for “Cultivation”, “T.I.,” for “TUDCA (100 μM (C1), 10 μM (C2), or 1.0 μM (C3)),”, “vehicle.” for “vehicle. Alternatively, cells in 96 well plates were treated with 25 μM HCQ/0.1 μM TUDCA (C1), 2.5 μM HCQ/100 μM TUDCA (C2), and 2.5 μM HCQ/10 μM TUDCA (C3).”
as §3, with “measurement in H4-hAPP cells:” for “measurement:”, “Discovery).” for “Discovery, Rockville, MD).”, “were” for “are”, “120.” for “120 multiplexing instrument.”

SMILES	secreted Aβ1-42 (HCQ 0.25 μM, 2.5 μM and 25 μM)	secretion of Aβ1-38 (TUDCA 100, 10, 1.0 μM, 24 h)	secretion of Aβ1-40 (TUDCA 100, 10, 1.0 μM, 24 h)	secretion of Aβ1-42 (TUDCA 100, 10, 1.0 μM, 24 h)	effect in Aβ release (H4 cells) (posterior probability of a protective effect)
CCN(CCO)CCCC(C)Nc1ccnc2cc(Cl)ccc12 (centres unmarked) [HCQ, hydroxychloroquine]	did not alter	–	–	–	–
C[C@H](CCC(=O)NCCS(=O)(=O)O)[C@H]1CC[C@H]2[C@@H]3[C@@H](O)C[C@@H]4C[C@H](O)CC[C@]4(C)[C@H]3CC[C@]12C [TUDCA, tauroursodeoxycholic acid]	–	lowers	lowers	lowers	protective
